According to patent US9944602B2, “Piperidinone herbicides” (E. I. DU PONT DE NEMOURS AND COMPANY, priority 2014, dated 2018):

Tests used:
[1] = system: barnyardgrass (Echinochloa crus-galli); assay: Test A preemergence barnyardgrass; type: in vivo; conditions: Echinochloa crus-galli, pre-emergence, 240 h, 0 to 100 scale, 0 no effect, 100 complete control, read-out: Barnyardgrass plant response rating; for pest or weed control at 125 g/ha: 125 g ai/ha; for pest or weed control at 500 g/ha: 500 g ai/ha
In short: (§1)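 Scores reflect visual comparison with untreated controls after ~10 d in the greenhouse (0 none, 100 complete control). Treatment was a surfactant-containing non-phytotoxic solvent formulation, sprayed onto soil after seeding or onto seedlings at one to two leaves, 2–10 cm tall.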

kochia (Kochia scoparia) [2] = assay: Test A preemergence kochia; type: in vivo; conditions: Bassia scoparia, pre-emergence, 240 h, 0 to 100 scale, 0 no effect, 100 complete control, read-out: Kochia plant response rating; for pest or weed control at 125 g/ha: 125 g ai/ha; for pest or weed control at 500 g/ha: 500 g ai/ha
In short: as §1

[3] = system: ragweed (common ragweed, Ambrosia elatior); assay: Test A preemergence ragweed; type: in vivo; conditions: Ambrosia artemisiifolia, pre-emergence, 240 h, 0 to 100 scale, 0 no effect, 100 complete control, read-out: Ragweed plant response rating; for pest or weed control at 125 g/ha: 125 g ai/ha; for pest or weed control at 500 g/ha: 500 g ai/ha
In short: as §1

[4] = system: ryegrass, Italian (Italian ryegrass, Lolium multiflorum); assay: Test A preemergence ryegrass, Italian; type: in vivo; conditions: Lolium multiflorum, pre-emergence, 240 h, 0 to 100 scale, 0 no effect, 100 complete control, read-out: Ryegrass, Italian plant response rating; for pest or weed control at 125 g/ha: 125 g ai/ha; for pest or weed control at 500 g/ha: 500 g ai/ha
In short: as §1

[5] = system: foxtail, giant (giant foxtail, Setaria faberii); assay: Test A preemergence foxtail, giant; type: in vivo; conditions: Setaria faberi, pre-emergence, 240 h, 0 to 100 scale, 0 no effect, 100 complete control, read-out: Foxtail, Giant plant response rating; for pest or weed control at 125 g/ha: 125 g ai/ha; for pest or weed control at 500 g/ha: 500 g ai/ha
In short: as §1

[6] = system: pigweed (Amaranthus retroflexus); assay: Test A preemergence pigweed; type: in vivo; conditions: Amaranthus retroflexus, pre-emergence, 240 h, 0 to 100 scale, 0 no effect, 100 complete control, read-out: Pigweed plant response rating; for pest or weed control at 125 g/ha: 125 g ai/ha; for pest or weed control at 500 g/ha: 500 g ai/ha
In short: as §1

[7] = system: barnyardgrass (Echinochloa crus-galli); assay: Test A postemergence barnyardgrass; type: in vivo; conditions: Echinochloa crus-galli, post-emergence, 240 h, 0 to 100 scale, 0 is no effect, 100 is complete control, read-out: Plant response rating, Barnyardgrass; for pest or weed control at 125 g/ha: 125 g ai/ha; for pest or weed control at 500 g/ha: 500 g ai/ha
In short: as §1

kochia (Kochia scoparia) [8] = assay: Test A postemergence kochia; type: in vivo; conditions: Bassia scoparia, post-emergence, 240 h, 0 to 100 scale, 0 is no effect, 100 is complete control, read-out: Plant response rating, Kochia; for pest or weed control at 125 g/ha: 125 g ai/ha; for pest or weed control at 500 g/ha: 500 g ai/ha
In short: as §1

[9] = system: ragweed (common ragweed, Ambrosia elatior); assay: Test A postemergence ragweed; type: in vivo; conditions: Ambrosia artemisiifolia, post-emergence, 240 h, 0 to 100 scale, 0 is no effect, 100 is complete control, read-out: Plant response rating, Ragweed; for pest or weed control at 125 g/ha: 125 g ai/ha; for pest or weed control at 500 g/ha: 500 g ai/ha
In short: as §1

[10] = system: ryegrass, Italian (Italian ryegrass, Lolium multiflorum); assay: Test A postemergence ryegrass, Italian; type: in vivo; conditions: Lolium multiflorum, post-emergence, 240 h, 0 to 100 scale, 0 is no effect, 100 is complete control, read-out: Plant response rating, Ryegrass, Italian; for pest or weed control at 125 g/ha: 125 g ai/ha; for pest or weed control at 500 g/ha: 500 g ai/ha
In short: as §1

[11] = system: foxtail, giant (giant foxtail, Setaria faberii); assay: Test A postemergence foxtail, giant; type: in vivo; conditions: Setaria faberi, post-emergence, 240 h, 0 to 100 scale, 0 is no effect, 100 is complete control, read-out: Plant response rating, Foxtail, Giant; for pest or weed control at 125 g/ha: 125 g ai/ha; for pest or weed control at 500 g/ha: 500 g ai/ha
In short: as §1

[12] = system: pigweed (Amaranthus retroflexus); assay: Test A postemergence pigweed; type: in vivo; conditions: Amaranthus retroflexus, post-emergence, 240 h, 0 to 100 scale, 0 is no effect, 100 is complete control, read-out: Plant response rating, Pigweed; for pest or weed control at 125 g/ha: 125 g ai/ha; for pest or weed control at 500 g/ha: 500 g ai/ha
In short: as §1

[13] = system: wheat (Triticum aestivum); assay: Test A postemergence wheat; type: in vivo; conditions: Triticum aestivum, post-emergence, 240 h, 0 to 100 scale, 0 is no effect, 100 is complete control, read-out: Plant response rating, Wheat; for plant injury at 125 g/ha: 125 g ai/ha; for plant injury at 500 g/ha: 500 g ai/ha
In short: as §1

corn (Zea mays) = assay: Test A postemergence corn; type: in vivo; conditions: Zea mays, post-emergence, 240 h, 0 to 100 scale, 0 is no effect, 100 is complete control; for Corn plant response rating (crop injury, 0 = no effect, 100 = complete kill) at 125 g/ha: 125 g ai/ha; for Corn plant response rating (crop injury, 0 = no effect, 100 = complete kill) at 500 g/ha: 500 g ai/ha
In short: as §1

[14] = system: blackgrass (Alopecurus myosuroides); assay: Test A postemergence blackgrass; type: in vivo; conditions: Alopecurus myosuroides, post-emergence, 240 h, 0 to 100 scale, 0 is no effect, 100 is complete control, read-out: Plant response rating, Blackgrass; for pest or weed control at 125 g/ha: 125 g ai/ha; for pest or weed control at 500 g/ha: 500 g ai/ha
In short: as §1

[15] = system: galium (catchweed bedstraw, Galium aparine); assay: Test A postemergence galium; type: in vivo; conditions: Galium, post-emergence, 240 h, 0 to 100 scale, 0 is no effect, 100 is complete control, read-out: Plant response rating, Galium; for pest or weed control at 125 g/ha: 125 g ai/ha; for pest or weed control at 500 g/ha: 500 g ai/ha
In short: as §1

rice (Oryza sativa) = assay: Test B flooded paddy test rice; type: in vivo; conditions: Oryza sativa, Table B, Flood, 250 g ai/ha, scale 0 to 100, read-out: Plant response rating
In short: (§2)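 Plants grown to the 2-leaf stage; pots flooded to 3 cm above soil at treatment, compound applied directly into paddy water, depth held throughout. Greenhouse 13 to 15 d, then visual evaluation against untreated controls.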

[16] = system: sedge, umbrella (small-flower umbrella sedge, Cyperus difformis); assay: Test B flooded paddy test sedge, umbrella; type: in vivo; conditions: Cyperus difformis, Table B, Flood, 250 g ai/ha, scale 0 to 100, read-out: Plant response rating
In short: as §2

[17] = system: ducksalad (Heteranthera limosa); assay: Test B flooded paddy test ducksalad; type: in vivo; conditions: Heteranthera limosa, Table B, Flood, 250 g ai/ha, scale 0 to 100, read-out: Plant response rating
In short: as §2

[18] = system: barnyardgrass (Echinochloa crus-galli); assay: Test B flooded paddy test barnyardgrass; type: in vivo; conditions: Echinochloa crus-galli, Table B, Flood, 250 g ai/ha, scale 0 to 100, read-out: Plant response rating
In short: as §2

Compound	pest or weed control at 125 g/ha [1]	pest or weed control at 500 g/ha [1]	pest or weed control at 125 g/ha (kochia (Kochia scoparia) [2])	pest or weed control at 500 g/ha (kochia (Kochia scoparia) [2])	pest or weed control at 125 g/ha [3]	pest or weed control at 500 g/ha [3]	pest or weed control at 125 g/ha [4]	pest or weed control at 500 g/ha [4]	pest or weed control at 125 g/ha [5]	pest or weed control at 500 g/ha [5]	pest or weed control at 125 g/ha [6]	pest or weed control at 500 g/ha [6]	pest or weed control at 125 g/ha [7]	pest or weed control at 500 g/ha [7]	pest or weed control at 125 g/ha (kochia (Kochia scoparia) [8])	pest or weed control at 500 g/ha (kochia (Kochia scoparia) [8])	pest or weed control at 125 g/ha [9]	pest or weed control at 500 g/ha [9]	pest or weed control at 125 g/ha [10]	pest or weed control at 500 g/ha [10]	also measured
O=C1NCCC(c2cccc(C(F)F)c2)C1C(=O)Nc1cccc(F)c1F (centres unmarked) [Compound 49, 4-[3-(difluoromethyl)phenyl]-N-(2,3-difluorophenyl)-2-oxo-3-piperidinecarboxamide]	80%	90%	0%	0%	0%	0%	0%	60%	90%	90%	0%	0%	80%	90%	0%	0%	0%	0%	0%	0%	pest or weed control at 125 g/ha [11]: 80%; pest or weed control at 500 g/ha [11]: 80%; pest or weed control at 125 g/ha [12]: 0%; pest or weed control at 500 g/ha [12]: 0%; plant injury at 125 g/ha [13]: 0%; plant injury at 500 g/ha [13]: 30%; Corn plant response rating (crop injury, 0 = no effect, 100 = complete kill) at 125 g/ha (corn (Zea mays)): 0%; Corn plant response rating (crop injury, 0 = no effect, 100 = complete kill) at 500 g/ha (corn (Zea mays)): 50%; pest or weed control at 125 g/ha [14]: 0%; pest or weed control at 500 g/ha [14]: 50%; pest or weed control at 125 g/ha [15]: 0%; pest or weed control at 500 g/ha [15]: 0%; plant injury at 250 g/ha (rice (Oryza sativa)): 0%; pest or weed control at 250 g/ha [16]: 0%; pest or weed control at 250 g/ha [17]: 100%; pest or weed control at 250 g/ha [18]: 70%; melting point: 134 to 137 °C
O=C1NCCC(c2cccc(Cl)c2)C1C(=O)Nc1cccc(F)c1F (centres unmarked) [Compound 36, 4-(3-chlorophenyl)-N-(2,3-difluorophenyl)-2-oxo-3-piperidinecarboxamide]	90%	90%	0%	0%	0%	0%	0%	30%	90%	90%	0%	0%	80%	90%	0%	0%	0%	0%	0%	20%	pest or weed control at 125 g/ha [11]: 90%; pest or weed control at 500 g/ha [11]: 90%; pest or weed control at 125 g/ha [12]: 0%; pest or weed control at 500 g/ha [12]: 0%; plant injury at 125 g/ha [13]: 0%; plant injury at 500 g/ha [13]: 0%; Corn plant response rating (crop injury, 0 = no effect, 100 = complete kill) at 125 g/ha (corn (Zea mays)): 0%; Corn plant response rating (crop injury, 0 = no effect, 100 = complete kill) at 500 g/ha (corn (Zea mays)): 0%; pest or weed control at 125 g/ha [14]: 0%; pest or weed control at 500 g/ha [14]: 60%; pest or weed control at 125 g/ha [15]: 0%; pest or weed control at 500 g/ha [15]: 30%; plant injury at 250 g/ha (rice (Oryza sativa)): 0%; pest or weed control at 250 g/ha [16]: 0%; pest or weed control at 250 g/ha [17]: 90%; pest or weed control at 250 g/ha [18]: 60%; melting point: 100 to 102 °C
